Reference: patent publication US10907197B2, “Probes for imaging huntingtin protein” (CHDI Foundation, Inc., priority 2014, dated 2021)
pIC50: −log10 of the molar value.

target: T1, Q46 protein aggregates (Homo sapiens, UniProt P42858, INS38QQQQQQQQQQQQQQQQQQQQQQQQQ); experiment: Q46 Radioligand Binding Assay (RBA); settings: displacement of 10 nM [3H3]MK-3328 from 5 μM Q46 protein aggregates, 60 min at 37° C.
T1 construct: 33 μM GST-Q46 was incubated with 150 μg/mL thrombin in assay buffer (150 mM NaCl, 50 mM Tris pH 8.0) and 2 mM CaCl2 for 16 hr at 37° C; fused on or other part: GST at the N-terminus
Procedure: Q46 Radioligand Binding Assay
For radioligand binding assays (RBA) GST-Q46 protein was generated based on a previous publication (Scherzinger et al. Cell, Vol. 90, 549-558, Aug. 8, 1997). For experiments 33 μM GST-Q46 was incubated with 150 μg/mL thrombin in assay buffer (150 mM NaCl, 50 mM Tris pH 8.0) and 2 mM CaCl2 for 16 hr at 37° C. Aggregated Q46 was pelleted by centrifugation for 5 min at 13,000 rpm in a bench top centrifuge and re-dissolved in the same volume of assay buffer. Test compounds were prepared by titration in DMSO at 11 concentrations from 33 μM to 1 nM. For the RBA, Q46 protein aggregates and test compounds were pre-incubated in assay buffer for 20 min at room temperature, in 140 μL/well in a 96-well plate (pp, round bottom). Then, ligand was added in 10 μL/well and incubated for 60 min at 37° C. Final assay concentrations were 1 μM to 30 pM test compound, 5 μM Q46 protein (equivalent monomer concentration) and 10 nM ligand [^3H3]MK-3328 (Harrision et al., ACS Med. Chem. Lett., 2 (2011), pp 498-502). Samples were transferred onto GF/B filter plates and washed 2× with 200 μL PBS using a Filtermate Harvester. After drying filter plates for 1 hr at 37° C., the back of the plates was sealed with foil and 30 μL/well scintillation fluid (Packard MicroScint 40) was added, incubated for incubated for 15 min in the dark and counted in a TopCount reader. […] IC50 values were determined with a sigmoidal inhibition model with four variables (top, bottom, slope, IC50) in a global fit using the normalized replicate data.

T1 sequence (P42858 with tags, fused parts or gaps with the stated changes): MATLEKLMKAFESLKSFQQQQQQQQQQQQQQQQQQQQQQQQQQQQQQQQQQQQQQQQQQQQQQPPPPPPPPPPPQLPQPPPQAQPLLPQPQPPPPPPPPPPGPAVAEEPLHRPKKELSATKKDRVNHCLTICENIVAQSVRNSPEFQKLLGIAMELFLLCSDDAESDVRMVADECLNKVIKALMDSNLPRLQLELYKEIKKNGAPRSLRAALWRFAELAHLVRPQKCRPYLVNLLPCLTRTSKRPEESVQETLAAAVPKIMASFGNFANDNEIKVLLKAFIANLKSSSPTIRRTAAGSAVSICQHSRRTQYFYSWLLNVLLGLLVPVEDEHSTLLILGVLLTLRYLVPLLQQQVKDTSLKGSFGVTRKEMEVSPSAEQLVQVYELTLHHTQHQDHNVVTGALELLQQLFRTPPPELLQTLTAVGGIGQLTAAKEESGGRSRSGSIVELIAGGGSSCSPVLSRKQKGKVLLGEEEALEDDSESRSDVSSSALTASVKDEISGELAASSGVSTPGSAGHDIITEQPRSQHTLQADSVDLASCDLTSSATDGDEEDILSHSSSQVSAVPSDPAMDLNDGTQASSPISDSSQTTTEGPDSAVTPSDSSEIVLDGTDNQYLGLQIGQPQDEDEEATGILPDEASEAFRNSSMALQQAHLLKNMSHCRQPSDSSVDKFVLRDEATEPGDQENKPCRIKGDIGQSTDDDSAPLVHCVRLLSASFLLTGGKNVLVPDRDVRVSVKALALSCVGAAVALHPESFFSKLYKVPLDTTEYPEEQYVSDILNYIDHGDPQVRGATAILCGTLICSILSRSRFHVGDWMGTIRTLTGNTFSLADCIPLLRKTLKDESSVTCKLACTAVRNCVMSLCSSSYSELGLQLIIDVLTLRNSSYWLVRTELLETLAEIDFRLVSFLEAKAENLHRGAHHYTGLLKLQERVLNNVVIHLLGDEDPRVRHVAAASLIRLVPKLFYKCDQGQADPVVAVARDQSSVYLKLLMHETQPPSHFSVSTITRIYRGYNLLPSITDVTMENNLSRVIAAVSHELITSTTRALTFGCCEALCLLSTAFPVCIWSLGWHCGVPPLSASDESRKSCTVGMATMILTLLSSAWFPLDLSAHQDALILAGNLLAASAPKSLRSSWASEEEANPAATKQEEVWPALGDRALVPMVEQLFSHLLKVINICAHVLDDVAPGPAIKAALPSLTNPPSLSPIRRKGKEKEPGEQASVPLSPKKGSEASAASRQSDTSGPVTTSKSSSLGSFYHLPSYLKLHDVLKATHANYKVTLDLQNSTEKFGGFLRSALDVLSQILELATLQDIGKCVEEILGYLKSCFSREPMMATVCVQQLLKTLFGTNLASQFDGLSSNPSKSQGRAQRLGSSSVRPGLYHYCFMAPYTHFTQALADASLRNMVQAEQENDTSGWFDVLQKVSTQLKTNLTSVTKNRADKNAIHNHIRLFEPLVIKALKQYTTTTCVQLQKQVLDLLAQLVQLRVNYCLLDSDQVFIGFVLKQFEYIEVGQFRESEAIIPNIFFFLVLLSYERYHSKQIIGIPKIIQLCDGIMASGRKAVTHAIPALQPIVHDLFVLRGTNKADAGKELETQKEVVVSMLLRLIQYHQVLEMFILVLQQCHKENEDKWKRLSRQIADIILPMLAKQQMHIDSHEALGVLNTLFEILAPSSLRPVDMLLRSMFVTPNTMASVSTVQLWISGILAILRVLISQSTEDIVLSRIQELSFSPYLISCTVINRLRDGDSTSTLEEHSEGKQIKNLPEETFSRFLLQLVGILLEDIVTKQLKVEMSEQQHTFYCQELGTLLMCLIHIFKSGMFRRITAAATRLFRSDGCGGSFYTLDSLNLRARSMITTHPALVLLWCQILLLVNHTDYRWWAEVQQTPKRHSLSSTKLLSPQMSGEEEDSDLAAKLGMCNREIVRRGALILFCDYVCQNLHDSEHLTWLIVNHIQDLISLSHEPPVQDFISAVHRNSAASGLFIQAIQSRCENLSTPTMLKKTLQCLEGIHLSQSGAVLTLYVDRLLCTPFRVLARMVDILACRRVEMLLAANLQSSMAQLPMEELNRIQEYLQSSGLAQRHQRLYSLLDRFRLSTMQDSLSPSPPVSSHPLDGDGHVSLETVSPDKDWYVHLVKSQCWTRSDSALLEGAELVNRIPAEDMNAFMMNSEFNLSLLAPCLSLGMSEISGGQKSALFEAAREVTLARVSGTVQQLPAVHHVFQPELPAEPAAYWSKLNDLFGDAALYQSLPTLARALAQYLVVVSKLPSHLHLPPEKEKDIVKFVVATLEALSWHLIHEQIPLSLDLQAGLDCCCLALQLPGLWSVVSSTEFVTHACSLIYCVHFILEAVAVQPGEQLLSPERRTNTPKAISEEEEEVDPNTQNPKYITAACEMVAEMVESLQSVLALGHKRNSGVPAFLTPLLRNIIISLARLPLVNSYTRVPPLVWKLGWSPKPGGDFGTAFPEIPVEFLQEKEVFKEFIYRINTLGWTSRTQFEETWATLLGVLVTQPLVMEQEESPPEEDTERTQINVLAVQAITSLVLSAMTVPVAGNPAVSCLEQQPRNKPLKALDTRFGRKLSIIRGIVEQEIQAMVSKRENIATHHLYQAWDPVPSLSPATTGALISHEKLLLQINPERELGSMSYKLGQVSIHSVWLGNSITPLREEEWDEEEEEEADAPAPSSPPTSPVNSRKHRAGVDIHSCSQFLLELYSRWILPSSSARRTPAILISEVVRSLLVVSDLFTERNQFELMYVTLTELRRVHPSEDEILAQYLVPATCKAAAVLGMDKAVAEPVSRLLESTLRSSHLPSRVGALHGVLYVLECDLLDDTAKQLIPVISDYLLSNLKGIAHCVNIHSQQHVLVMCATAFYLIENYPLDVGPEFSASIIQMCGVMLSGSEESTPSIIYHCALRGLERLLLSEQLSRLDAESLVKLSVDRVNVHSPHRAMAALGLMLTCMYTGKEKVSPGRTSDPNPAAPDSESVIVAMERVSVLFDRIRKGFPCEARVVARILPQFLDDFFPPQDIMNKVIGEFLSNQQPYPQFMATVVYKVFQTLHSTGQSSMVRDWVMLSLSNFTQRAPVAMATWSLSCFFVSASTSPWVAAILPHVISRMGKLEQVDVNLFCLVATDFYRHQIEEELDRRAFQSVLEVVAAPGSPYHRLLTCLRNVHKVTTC

Compound | pIC50
COc1ccc2nc(-c3ccccc3OC)sc2c1 [6-methoxy-2-(2-methoxyphenyl)-1,3-benzothiazole] | 6.30 to 7.00
COc1ccc2nc(-c3cccnc3)oc2c1 [6-methoxy-2-(pyridin-3-yl)-1,3-benzoxazole] | 6.30 to 7.00
COc1ccc2nc(-c3ccncc3-c3ccn[nH]3)sc2c1 [6-methoxy-2-[3-(1H-pyrazol-5-yl)pyridin-4-yl]-1,3-benzothiazole] | 6.30 to 7.00
OCc1ccc2oc(-c3cccnc3)nc2c1 [[2-(pyridin-3-yl)-1,3-benzoxazol-5-yl]methanol] | < 6.30

Other lines, results leading:

pIC50 | Compound
> 7.00 | COc1ccc2oc(-c3ccncc3)c(C#N)c2c1 [5-methoxy-2-(pyridin-4-yl)-1-benzofuran-3-carbonitrile]
> 7.00 | COc1ccc2oc(-c3ccc(C#N)cn3)cc2c1 [6-(5-methoxy-1-benzofuran-2-yl)pyridine-3-carbonitrile]
> 7.00 | COc1ccc2oc(-c3cccc4cn[nH]c34)cc2c1 [7-(5-methoxy-1-benzofuran-2-yl)-1H-indazole]
> 7.00 | COc1ccc2nc(-c3ccncc3NC(C)=O)sc2c1 [N-[4-(6-methoxy-1,3-benzothiazol-2-yl)pyridin-3-yl]acetamide]
> 7.00 | COc1ccc2oc(-c3cccc(NC(C)=O)n3)cc2c1 [N-[6-(5-methoxy-1-benzofuran-2-yl)pyridin-2-yl]acetamide]

system: recombinant tau and amyloid β1-42 (Aβ1-42) aggregates; experiment: not given; settings: higher affinity for the tau aggregates than Aβ1-42 aggregates; cited from earlier work

Compound | ratio of Kd values
CN(C)c1ccc(/C=C/c2nc3ccc(I)cc3[nH]2)cc1 [SBIM-3, 4-[(E)-2-(6-iodo-1H-benzimidazol-2-yl)ethenyl]-N,N-dimethylaniline] | 2.73

system: NFT in sections of AD brain tissue; experiment: not given; settings: cited from earlier work

Compound | binding to NFT
CN(C)c1ccc(/C=C/c2nc3ccc(I)cc3[nH]2)cc1 [SBIM-3, 4-[(E)-2-(6-iodo-1H-benzimidazol-2-yl)ethenyl]-N,N-dimethylaniline] | bound NFT in sections of AD brain tissue
